Reference: paper PMC1874649 (Nucleic Acids Research, 2007)

System: cyclin B1
Type: cell-based
Settings: complexed with Pep-3, 2 µM, HeLa cells

## control HypNA-pPNA sequence harbouring two mutations: sequence derived from Cyc-B1a harbouring two mismatches, TGC CAT CAG GCT TAG AGG (antisense TGCCATCAGGCTTAGAGG; HypNA-pPNA backbone (hydroxyproline/phosphono PNA), pattern not given here)
  effect on cyclin B1 protein levels (control): no effect
